≈ marks a conversion by molar mass, not a printed value.
Experiments:
[1] = test system: Wister rats, carragheenin-induced footpad swelling; assay: Suppression of rat footpad swelling caused by carragheenin; type: in vivo
Method: Tests were made to estimate the suppressive effect of ebelactone and esterastin (U.S. Pat. Nos. 4,189,438 and 4,242,453) on the swelling of rat footpad caused by injection of carragheenin when the test compounds were administered orally and intraperitoneally to the test animal, Wister rats (male, body weight:140 to 150 g). The test compound was dissolved in about 0.5 ml of ethanol with addition of one drop of a non-ionic surface-active agent "Tween" 80, and the test compound solution in ethanol was diluted with an aqueous gum arabi to prepare an aqueous suspension containing the test dose of ebelactone or esterastin. The test sample suspension so prepared was then administered orally or intraperitoneally to the rats. One hour later, 1% aqueous carragheenin was injected subcutaneously to the footpad to bring about inflammation. After the injection of carragheenin, the volume of the footpad was measured twice, namely at the end of 3 hours and at the end of 5 hours from the carragheenin injection. For control test, the ebelactone or esterastin was omitted in the above test. Degree (%) of suppression of swelling was calculated from the measured volumes of the inflammated footpad.

[2] = target: T1, formylmethionine aminopeptidase prepared from rat liver (Rattus norvegicus, UniProt P13676); assay: Anti-formylmethionine aminopeptidase activity assay; type: biochemical; conditions: rat liver enzyme, substrate N-formylmethionine β-naphthylamide, pH 7.8, 37° C., 25 minutes; read-out: ID50, dose giving 50% inhibition to formylmethionine aminopeptidase (converted)
T1 construct: Formylmethionineaminopeptidase employed is that prepared from rat liver; from tissue; host or cells: rat liver
T1 sequence (P13676 1-732): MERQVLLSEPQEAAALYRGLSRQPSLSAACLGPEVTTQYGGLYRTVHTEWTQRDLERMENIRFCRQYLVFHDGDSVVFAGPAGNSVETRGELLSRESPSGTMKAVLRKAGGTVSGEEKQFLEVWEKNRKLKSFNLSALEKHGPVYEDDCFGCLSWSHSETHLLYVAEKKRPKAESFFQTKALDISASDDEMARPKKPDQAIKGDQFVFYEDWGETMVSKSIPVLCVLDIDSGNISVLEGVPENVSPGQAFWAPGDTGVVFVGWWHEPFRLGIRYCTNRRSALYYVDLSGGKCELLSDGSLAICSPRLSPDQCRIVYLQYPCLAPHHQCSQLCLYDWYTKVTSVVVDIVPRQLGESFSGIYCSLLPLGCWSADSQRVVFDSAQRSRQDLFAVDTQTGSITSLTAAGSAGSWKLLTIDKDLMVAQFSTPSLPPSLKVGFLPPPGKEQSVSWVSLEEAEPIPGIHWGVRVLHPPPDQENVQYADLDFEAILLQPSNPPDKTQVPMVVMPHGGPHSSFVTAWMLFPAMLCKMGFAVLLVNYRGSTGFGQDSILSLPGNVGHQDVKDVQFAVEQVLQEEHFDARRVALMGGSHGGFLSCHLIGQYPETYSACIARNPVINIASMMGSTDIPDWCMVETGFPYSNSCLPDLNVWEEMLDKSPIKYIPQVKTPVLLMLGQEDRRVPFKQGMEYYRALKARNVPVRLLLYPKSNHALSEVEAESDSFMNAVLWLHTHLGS
Method: Further, assay of ebelactone for its anti-formylmethionineaminopeptidase can be made according to the following method. Thus, as the substrate solution is employed a solution of N-formylmethionine β-naphthylamide(as the substrate) in methanol containing 5% (w/v) of "Tween" 20 (a trade name of a non-ionic surface-active agent, a product of Atlas Powder Co., U.S.A.). Formylmethionineaminopeptidase employed is that prepared from rat liver. The substrate solution (0.005 ml), 0.5 ml of 0.1 M Tris-hydrochloric acid buffered solution (pH 7.8) and 0.495 ml of water containing an ebelactone sample to be assayed are mixed together to a total volume of […]. The reaction solution so obtained is further admixed with 0.05 ml of the enzyme solution, followed by effecting the enzymatic reaction at 37° C. for 25 minutes. […] After allowing to stand at ambient temperature for 15 minutes, absorbance (a) at 525 nm of the reaction solution is measured. On the other hand, adsorbance (b) at 525 nm of a control reaction solution obtained from the blank test is measured. Percent of inhibition to the formylmethionine aminopeptidase is calculated in a similar way to the above-mentioned method for determination of the potency for inhibition to esterase.

[3] = target: esterase preparation obtained from pig liver; assay: Anti-esterase activity assay (modified Huggins and Lapides method); type: biochemical; conditions: substrate p-nitrophenyl acetate, pH 7.0, room temperature, 20 minutes
Method: Firstly, assay of ebelactone for its anti-esterase activity can be made by determining the potency to inhibit esterase according to a modification of the method of C. […] Thus, a commercially available esterase preparation obtained from pig liver (a product of Sigma Co., U.S.A.) is diluted with water to a 1000 folds volume, and the resulting esterase solution (0.025 ml) is admixed with 1 ml of 0.1 M phosphate buffered solution (pH 7.0) containing 0.06% "Triton X-100" (a trade name of an emulsifier consisting of a polyethyleneglycol alkylphenylether, a product of Rohm & Haas Co., U.S.A.) and 0.95 ml of water containing an ebelactone sample to be assayed, and the resulting mixed solution (1.975 ml) is admixed with 0.025 ml of a solution of 40 mM p-nitrophenyl acetate (the substrate) in methanol to start the reaction of p-nitrophenyl acetate with the esterase. After the enzymatic reaction is effected at room temperature for 20 minutes, absorbance (a) at 400 nm of the resulting reaction solution is measured. On the other hand, absorbance (b) at 400 nm of a control reaction solution containing no ebelactone is measured in the same way as above. Percent of inhibition to esterase is calculated according to the following equation:
Inhibition (%)=(b-a)/b×100

[4] = test system: CDF1 mice immunized with sheep red blood cells (SRBC); assay: Delayed Type Hypersensitivity (D.T.H.) response to SRBC in mice (cell-mediated immunity); type: in vivo; conditions: 24 hours after eliciting injection
[5] = intraperitoneal, 30 mg/kg, 3 Hours after carragheenin
[6] = intraperitoneal, 30 mg/kg, 5 Hours after carragheenin
[7] = intraperitoneal, all dosages and all times, except 5 hours with 5 mg/kg and 3 hours with 10 mg/kg of ebelactone B
[8] = oral, 50 mg/kg, 3 Hours after carragheenin
[9] = oral, 50 mg/kg, 5 Hours after carragheenin

Row | Structure (SMILES) | Degree (%) of suppression of inflammation [1, 5] | Degree (%) of suppression of inflammation [1, 6] | reduction in the degree of swelling as compared to the control test group [1, 7] | Degree (%) of suppression of swelling [1, 8] | Degree (%) of suppression of swelling [1, 9] | IC50 [2] | ID50, dose giving 50% inhibition to esterase [3] | Foodpad thickness ([4]; 0.5 mg/kg oral, control 8.1) | also measured
1 | CCC(C)C(O)C(C)C(=O)C(C)C=C(C)CC(C)C1OC(=O)C1CC (stereo not drawn) [Ebelactone B, ebelactone B] | 50.6% | 20.9% | significant reduction in the degree of swelling | 11.6% | 7.8% | 0.0567 µM | 0.00035 µg/mL (≈ 0.000993 µM) | 14.1 × 0.1 mm | Degree (%) of suppression of inflammation ([1]; intraperitoneal, 5 mg/kg, 3 Hours after carragheenin): 17.1%; Degree (%) of suppression of inflammation ([1]; intraperitoneal, 5 mg/kg, 5 Hours after carragheenin): 8.8%; Degree (%) of suppression of inflammation ([1]; intraperitoneal, 10 mg/kg, 3 Hours after carragheenin): 9.1%; Degree (%) of suppression of inflammation ([1]; intraperitoneal, 10 mg/kg, 5 Hours after carragheenin): 10.0%; Degree (%) of suppression of swelling ([1]; oral, 10 mg/kg, 3 Hours after carragheenin): 11.2%; Degree (%) of suppression of swelling ([1]; oral, 10 mg/kg, 5 Hours after carragheenin): 8.2%; reduction in the degree of swelling as compared to the control test group ([1]; oral, 10 mg/kg, at 3 hours and 5 hours from carragheenin injection): significant reduction in the degree of swelling; reduction in the degree of swelling as compared to the control test group ([1]; oral, 50 mg/kg, at 3 hours from carragheenin injection): significant reduction in the degree of swelling; Degree (%) of suppression of swelling ([1]; oral, 100 mg/kg, 3 Hours after carragheenin): 7.0%; Degree (%) of suppression of swelling ([1]; oral, 100 mg/kg, 5 Hours after carragheenin): 9.6%; reduction in the degree of swelling as compared to the control test group ([1]; oral, 100 mg/kg, at 5 hours from carragheenin injection): significant reduction in the degree of swelling; Foodpad thickness ([4]; 0.781 mg/kg intraperitoneal at immunization, control 7.4): 14.2 × 0.1 mm; Foodpad thickness ([4]; 3.125 mg/kg intraperitoneal at immunization, control 7.4): 13.6 × 0.1 mm; Foodpad thickness ([4]; 12.5 mg/kg intraperitoneal at immunization, control 7.4): 13.3 × 0.1 mm; Foodpad thickness ([4]; 50 mg/kg intraperitoneal at immunization, control 7.4): 12.2 × 0.1 mm
2 | CCC(C)C(O)C(C)C(=O)C(C)C=C(C)CC(C)C1OC(=O)C1C (stereo not drawn) [Ebelactone A, ebelactone A] | 45.9% | 18.5% | significant reduction in the degree of swelling |  |  | 0.236 µM | 0.056 µg/mL (≈ 0.165 µM) | 12.2 × 0.1 mm | 
3 | CCCCCC=CCC=CCC(CC1OC(=O)C1CCCCCC)OC(=O)C(CC(N)=O)NC(C)=O (stereo not drawn) [Esterastin, esterastin, reference compound] | 31.1% | 28.1% |  | 10.3% | -3.0% |  |  |  | 
